# Results published in a melting point compilation (Tetko et al.; mined from patent text by program, amines drawn as free bases though some values may be those of a salt).
row,SMILES,melting point [°C]
1,O=C(Oc1ccccc1Cl)c1ncn2c1[C@@H]1CCCN1C(=O)c1c(Cl)cccc1-2,214 to 215
2,CCOC(=O)N1C=CC(c2c(-c3ccccc3)nn3ccccc23)C=N1 (configuration not stated),173 to 174
3,O=c1n(-c2ccc(OCC(F)(F)C(F)F)cc2)cnn1CC(O)(Cn1cncn1)c1ccc(F)cc1F (racemic),79 to 80
4,COC(=O)CCc1ccc(NC(=O)NNC=O)cc1,146 to 148
5,C=C1CC2C(CCC3(C)C2CCC3(OC(C)=O)C(C)=O)C2(C)C1=CC(=O)CC2CCl (configuration not stated),190 to 192
6,CCCCc1c(Cl)nc(C)nc1Cl,50 to 51
7,Clc1nc(-c2cccnc2)sc1-c1cccnc1,145 to 147
8,CC(=O)OC1CSC(Oc2cncc(-c3ccc(F)c(C)c3)c2)C(OC(C)=O)C1OC(C)=O (configuration not stated),161
9,C=C(C)C(OC(=O)Nc1cc(OC(=O)Oc2cc(NC(=O)OC(C(=C)C)C(=O)OC)c(F)cc2Cl)c(Cl)cc1F)C(=O)OC (configuration not stated),72 to 74
10,COC(=O)c1nc(NC(C)=O)sc1-c1ccccc1,224 to 226
11,CCOC(=O)CNC(=O)c1cc2c(s1)-n1c(C)nnc1CN=C2c1ccccc1Cl,251 to 252
12,Cc1nc2c(N)nc3ccccc3c2n1OC(C)C,243
13,O=C(O)CNC(=O)c1ccc([N+](=O)[O-])cc1[N+](=O)[O-],188 to 190
14,CC(C)c1n[nH]c(=O)n1N,172
15,c1ccc2cc(-c3cc4nccnc4[nH]3)ncc2c1,281 to 285
16,COC(=O)CCCCCOc1ccc(N=C=O)cc1,47 to 50
17,CNC(=O)n1cc(C(N)=O)nc1C(C)(C)C,145 to 147
18,COc1cc(Nc2nccc(-c3ccc(-c4nnn[nH]4)cc3)n2)cc(OC)c1OC,246 to 247
19,CCCCC(Cc1cccnc1)(C(=O)OC(C)(C)C)S(=O)(=O)c1ccc(OC)cc1 (configuration not stated),10
20,COc1cc(NC(=O)Nc2ccccc2)ccn1,127 to 129

row,SMILES,melting point [°C]
1,O=C1CSC(=S)N1c1ccc(Cl)cc1,124 to 126
2,CCCC1N(C)c2cccc3cccc(c23)N1C,70 to 71
3,CCOP(=O)(O)Cc1ccc(NC(=O)CCc2cnoc2-c2ccccc2)cc1,80 to 82
4,CCCCCCCCC#CCC#CCC#CCCCC(=O)Nc1ccc(O)cc1,121
5,CCCCCCCNC(=O)Nc1cccc(-c2ccc(C=C(OC)C(=O)O)cc2OCCCC)c1,137
6,CCCCNC(=O)NS(=O)(=O)c1c(Cl)cccc1S(=O)(=O)N(C)C,107 to 115
7,CCOC(=O)C(C)Oc1ccc(C)cc1 (configuration not stated),78 to 82
8,CC(C)(C)c1cccc(S(=O)(=O)Nc2cc(C(F)(F)F)ccc2I)c1,134
9,O=C(CC(NC(=O)Cc1ccccc1)c1ccccc1)Nc1n[nH]c(=S)s1 (configuration not stated),249 to 250
10,CC(n1cncn1)C(O)(COc1ccc(Cl)cc1)C(C)(C)C (configuration not stated),80 to 104
11,CCCCc1cnc(-c2ccc(N=C=O)cc2)nc1,48
12,Cc1cc(-c2cnn3c(C(F)(F)F)cc(-c4ccc(C(F)(F)F)cc4)nc23)cc(C)n1,257
13,COc1cccc(N(C)C(=O)C(C)Br)c1 (configuration not stated),55 to 56
14,CCCCCCCCCCCCCCCC(=O)N[C@@H](CSC[C@H](O)CO)C(=O)O,110
15,CCCCCCCCOc1ccc(-c2cnc(-c3ccc(O)cc3)nc2)cc1,137
16,CC(=O)C(C)(CO)CO,60
17,CSc1ccc(-c2c(C#N)cnn2-c2ccc(F)cc2)cc1,122 to 123
18,N#Cc1nn(-c2c(Cl)cc(C(F)(F)F)cc2Cl)cc1OC(F)F,85 to 87
19,CCCN(CCC)C(=O)COc1nc(-c2ccccc2)nc(C)c1C,88 to 89
20,CCCCCCCCNC(=O)n1cc(F)c(=O)[nH]c1=O,98 to 100

# More lines, now with the values ahead:
row,melting point [°C],SMILES
1,218 to 220,O=C1CCC(N2Cc3c(OCc4nc(CN5CCOCC5)cs4)cccc3C2=O)C(=O)N1 (configuration not stated)
2,140 to 143,Nc1cccc(-c2ccc(CCN3Cc4ccccc4C3)cc2)n1
3,124 to 127,CN1CCSC1=NC(=Nc1ccc(Cl)cc1)N1CCCC1
4,78,O=C(O)Cc1cccc(CCNC(=O)C2Cc3ccccc3N2S(=O)(=O)c2ccc(-c3ccccc3C(F)(F)F)cc2)c1 (configuration not stated)
5,170 to 171,CN(C)c1cccc2c1c(=O)n(C)c1c(-c3noc(C4CC4)n3)ncn21
6,138 to 142,O=C(Cn1sc2ccccc2c1=O)N1CCN(C(=O)OCc2ccccc2)CC1
7,137 to 140,CO/C=C(/C(=O)OC)c1ccccc1Oc1ncnc(Cl)n1
8,174 to 176,CC(C)(O)CNc1nccc(-c2c(-c3ccc(F)cc3F)nc3c(CC4CC4)nccn23)n1
9,137 to 141,CCC(=Cc1cccnc1)C(=O)NCCCCN1CCN(C(c2ccccc2)c2ccccc2)CC1
10,> 250,NC(=O)N1C(=O)C(C(=O)c2cccs2)c2ncc(Cl)cc21 (configuration not stated)
11,336 to 339,Nc1ccc2c(=O)n3c(nc2c1)C(=Cc1ccc(C(=O)O)cc1)CC3
12,234 to 240,Cc1nc(NC(=O)NS(=O)(=O)c2cccc3c2nnn3C)nc2c1CCO2
13,149 to 150,Cc1cccc(-n2nc(C)cc2N)n1
14,196 to 197,S=C1Nc2cc(Br)ccc2N2CCc3cccc1c32
15,235 to 238,O=c1[nH]c2cccnc2n1-c1ccccn1
16,232 to 234,CN(C)Cc1nnc2n1-c1ccc(Cl)cc1N(c1ccccc1)C(=O)C2

row,melting point [°C],SMILES
1,170 to 172,N=C(Nc1ccc(Cl)cc1)Nc1ncccc1OCc1ccccc1
2,290,Nc1ccn([C@@]2(O)CC=C(P(=O)(O)O)O[C@@H]2CO)c(=O)n1
3,186 to 187,CC1(C)CC(=O)C2=C(C1)NC(c1cccnc1)=NC2c1ccc(F)cc1Cl (configuration not stated)
4,103 to 105,CCN1C(=O)C(=O)N(c2c(C)cccc2C)C1=S
5,159 to 161,NC(=O)C1CCc2c(C(=O)c3ccc(Cl)cc3)cccc21 (configuration not stated)
6,137 to 138,CCCc1cn(Cc2ccc(C(=O)NS(=O)(=O)c3ccccc3Cl)cc2OC)c2cc(CCCC(=O)N(C)C)ccc12
7,179 to 180,COCCNC(=O)c1ccc(C)c(-n2c(C)cc(OCc3ccccc3CNC(=O)Nc3cc(C(C)(C)C)nn3-c3ccc(O)c(Cl)c3)c(Cl)c2=O)c1
8,216 to 218,O=C1c2ccccc2-c2c1c1ccccc1c(=O)n2CCCNS(=O)(=O)c1ccccc1
9,142 to 143,CCn1nc(C)c(CN(C(=O)C2CCCc3ccccc32)c2ccc(C(C)C)cc2)c1C (configuration not stated)
10,170 to 172,O=c1nc(-c2ccco2)sc2ccccc12
11,138,CCCOc1ccccc1-c1nc2cc([N+](=O)[O-])ccc2c(=O)[nH]1
12,160 to 165,Cn1cc(C2=C(c3c4n(c5ccccc35)CCC(CCN)C4)C(=O)NC2=O)c2ccccc21 (configuration not stated)
13,145 to 147,O=C1Cc2c(CCO)cccc2N1
14,94 to 95,COC(=O)c1ccc(Cn2cnc3ccccc32)cc1
15,133 to 135,Cc1nn(-c2cc(Oc3ccc(N)cc3)c(Cl)cc2F)c(=O)n1C(F)F
16,219 to 221,CC(=O)c1ccc2c(c1)CCc1ccc(C(=O)O)cc1S2(=O)=O
